Experimental data: PubChem BioAssay AID248 (DTP/NCI, 2004)
“And” between values parts separate entries of the source, which are not always exact repeats. Identical values can stand only once. Toxic doses and inconclusive results are not listed. No stated cut-off is given here; in the data, active means T/C of 150% or more; inactive means T/C below 125%.

System: L1210 leukemia ip in BDF1 mice, survival T/C
Experiment: NCI In Vivo Anticancer Drug Screen. Data for tumor model L1210 Leukemia (intraperitoneal) in B6D2F1 (BDF1) mice
Conditions: endpoint: mean survival time, higher = longer survival
Outline: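 Value reflects the ratio of survival in compound-treated mice to survival in vehicle-treated controls, with both groups carrying the same transplanted tumor.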

[1] = dose: 100.0 mg/kg/injection, schedule: Q01DX009 (ip), vehicle: Klucel (hydroxypropylcellulose) (HPC)
[2] = dose: 200.0 mg/kg/injection, schedule: Q01DX009 (ip), vehicle: Klucel (hydroxypropylcellulose) (HPC)
[3] = dose: 400.0 mg/kg/injection, schedule: Q01DX009 (ip), vehicle: Klucel (hydroxypropylcellulose) (HPC)

Measured: T/C

NC(N)=N/N=C(/c1ccccc1)c1ccc2ccccc2c1
inactive: dose: 60.0 mg/kg/injection, schedule: Q01DX Z (oral), vehicle: methylcellulose (MC) 95 % of control | dose: 120.0 mg/kg/injection, schedule: Q01DX Z (oral), vehicle: methylcellulose (MC) 108 % of control | dose: 240.0 mg/kg/injection, schedule: Q01DX Z (oral), vehicle: methylcellulose (MC) 111 % of control | dose: 480.0 mg/kg/injection, schedule: Q01DX Z (oral), vehicle: methylcellulose (MC) 101 % of control | dose: 720.0 mg/kg/injection, schedule: Q01DX Z (oral), vehicle: methylcellulose (MC) 98 % of control | dose: 840.0 mg/kg/injection, schedule: Q01DX Z (oral), vehicle: methylcellulose (MC) 112 % of control

CC(C)N(C(C)C)S(C)(=O)=O
inactive: dose: 100.0 mg/kg/injection, schedule: Q04DX003 (ip), vehicle: saline 92 % of control

Cc1cccc(NC(=O)C(Cl)(Cl)Cl)c1
inactive: dose: 100.0 mg/kg/injection, schedule: Q04DX002 (ip), vehicle: Klucel (hydroxypropylcellulose) (HPC) 109 % of control | dose: 200.0 mg/kg/injection, schedule: Q04DX002 (ip), vehicle: Klucel (hydroxypropylcellulose) (HPC) 98 % of control | dose: 400.0 mg/kg/injection, schedule: Q04DX002 (ip), vehicle: Klucel (hydroxypropylcellulose) (HPC) 98 % of control

O=C(c1ccco1)C1Cc2ccccc2C1=O (centres undefined)
inactive: [1] 95 % of control | dose: 100.0 mg/kg/injection, schedule: Q04DX003 (ip), vehicle: alcohol 109 % of control | [2] 94 % of control | dose: 200.0 mg/kg/injection, schedule: Q04DX003 (ip), vehicle: alcohol 104 % of control | [3] 97 % of control | dose: 400.0 mg/kg/injection, schedule: Q04DX003 (ip), vehicle: alcohol 103 % of control

CCOC(=O)c1c(O)csc1C
inactive: [1] 93 % of control | dose: 100.0 mg/kg/injection, schedule: Q04DX003 (ip), vehicle: Klucel (hydroxypropylcellulose) (HPC) 98 % of control | [2] 90 % of control | dose: 200.0 mg/kg/injection, schedule: Q04DX003 (ip), vehicle: Klucel (hydroxypropylcellulose) (HPC) 101 % of control | [3] 109 % of control | dose: 400.0 mg/kg/injection, schedule: Q04DX003 (ip), vehicle: Klucel (hydroxypropylcellulose) (HPC) 97 % of control

COC(=O)/C=C\C=C\C(=O)OC
inactive: dose: 50.0 mg/kg/injection, schedule: Q01DX001 (ip), vehicle: carboxymethylcellulose (CMC) 95 % of control | dose: 100.0 mg/kg/injection, schedule: Q01DX001 (ip), vehicle: carboxymethylcellulose (CMC) 94 % of control | dose: 200.0 mg/kg/injection, schedule: Q01DX001 (ip), vehicle: carboxymethylcellulose (CMC) 98 % of control | dose: 400.0 mg/kg/injection, schedule: Q01DX001 (ip), vehicle: carboxymethylcellulose (CMC) 98 % of control

N#Cc1ccccc1NC(=S)Nc1ccc([N+](=O)[O-])cc1
inactive: dose: 12.5 mg/kg/injection, schedule: Q01DX009 (ip), vehicle: saline with Tween-80 95 % of control | dose: 25.0 mg/kg/injection, schedule: Q01DX009 (ip), vehicle: saline with Tween-80 100 % of control | dose: 50.0 mg/kg/injection, schedule: Q01DX009 (ip), vehicle: saline with Tween-80 95 % of control and 88 % of control

CCOc1ccc(/C=N/NC(=O)COCC(=O)N/N=C/c2ccc(OCC)c(OC)c2)cc1OC
inactive: [1] 92 % of control | [2] 87 % of control | [3] 103 % of control

NC(=S)c1cccc(OCc2ccccc2)c1
inactive: dose: 100.0 mg/kg/injection, schedule: Q01DX009 (ip), vehicle: saline with Tween-80 106 % of control | dose: 200.0 mg/kg/injection, schedule: Q01DX009 (ip), vehicle: saline with Tween-80 92 % of control

CCCC(C)CC(=O)O (centres undefined)
inactive: dose: 100.0 mg/kg/injection, schedule: Q01DX001 (ip), vehicle: saline 102 % of control | dose: 200.0 mg/kg/injection, schedule: Q01DX001 (ip), vehicle: saline 102 % of control | dose: 400.0 mg/kg/injection, schedule: Q01DX001 (ip), vehicle: saline 98 % of control

Cc1cccc(NC(=O)Oc2ccc(Nc3ccccc3)cc2)c1
inactive: [1] 96 % of control | [2] 102 % of control | [3] 98 % of control

Nc1cccs1
inactive: dose: 8.12 mg/kg/injection, schedule: Q01DX009 (ip), vehicle: saline 100 % of control | dose: 9.37 mg/kg/injection, schedule: Q01DX009 (ip), vehicle: other 94 % of control | dose: 16.25 mg/kg/injection, schedule: Q01DX009 (ip), vehicle: saline 100 % of control | dose: 18.75 mg/kg/injection, schedule: Q01DX009 (ip), vehicle: other 107 % of control | dose: 37.5 mg/kg/injection, schedule: Q01DX009 (ip), vehicle: other 107 % of control | dose: 75.0 mg/kg/injection, schedule: Q01DX009 (ip), vehicle: other 96 % of control | dose: 150.0 mg/kg/injection, schedule: Q01DX009 (ip), vehicle: other 96 % of control | dose: 300.0 mg/kg/injection, schedule: Q01DX009 (ip), vehicle: other 102 % of control
active: dose: 100.0 mg/kg/injection, schedule: Q01DX009 (ip), vehicle: saline 153 % of control
